Measurements as given in US20100330070A1, “Methods Of Making An Antibody And Compositions Thereof” (priority 2009, published 2010).

Legend:
LL-37 [1] = experiment: LL-37 expression by OBA9 cells with Sepharose-coupled benzoic acid isomers; format: cell-based, human; settings: isomer coupled to NHS-activated Sepharose gel with EDC
Excerpt: In order to investigate the structure-function relationship underlying EGCG-mediated induction of LL-37 from human gingival epithelial cell line OBA9, different isomers of benzoic acids are examined for their effects on the LL-37 expression by OBA9 cells. Each isomer of benzoic acids is coupled to NHS-activated Sepharose gel (Pierce) using a cross-linker, 1-Ethyl-3-[3-dimethylaminopropyl]carbodiimide (EDC, Pierce). The isomers of benzoic acids include 1) 2,6-di-hydroxy benzoic acid, 2) 2,3,4-tri-hydroxy benzoic acids, 3) 3,4,5-tri-hydroxy benzoic acids, and 4) 2,4,6-tri-hydroxy benzoic acids.

[2] = system: Actinobacillus actinomycetemcomitans Y4; experiment: Bactericidal effect of culture supernatant of treated OBA9 cells; format: cell-based; settings: supernatant of OBA9 treated at 20 ug/ml; compared with non-treated, catechin- and 2,4-dihydroxy benzoic acid-treated supernatant
Method: The culture supernatant isolate from OBA9 is treated with 1) EGCG, 2) catechin, 3) 2,4-dihydroxy benzoic acid, and 4) 3,4,5-tri-hydroxy benzoic acid (20 ug/ml, respectively) and examined for their bactericidal effects on Actinobacillus actinomycetemcomitans Y4 (Aa Y4).

LL-37 [3] = experiment: ELISA of LL-37 induction from OBA9 cells; format: cell-based, human; settings: for induction of LL-37 expression: in the absence of EGCG; for induction of LL-37 (ELISA): 20 ug/ml
Method: (§1) Using ELISA systems to detect LL-37 (Forsyth in-house) and hBD2 (Peprotech), 33 natural compounds (20 ug/ml) are examined for their ability to induce LL-37 and hBD2 from OBA9 cells. Although the sensitivity of the hBD2 ELISA is higher than that of LL-37 ELISA (10 pg/ml vs 1 ng/ml, respectively), the induction of LL-37 is more prominent than hBD2 (FIG. 2 A&B, LL-37; C&D, hBD2). […] Bactericidal effects of LL-37 and hBD2 are, in general, potent.
The Trihydroxybenzoate Derivatives of the Invention and rosemarinic acid, courmarin, catechin gallate, epicatechin gallate, epigallocatechin, and tannic acid are tested to induce LL-37 from OBA9 cells in the absence of EGCG.

hBD2 = experiment: ELISA of hBD2 induction from OBA9 cells; format: cell-based, human; settings: 20 ug/ml
Method: as §1

LL-37 [4] = experiment: Western blot of LL-37 protein in cheek epithelial cells; format: in vivo, human; settings: Western blot with anti-LL-37 monoclonal antibody
Excerpt: (§2) Cheek epithelium is utilized for monitoring LL-37 mRNA and protein expression to determine if Trihydroxybenzoate Derivatives of the Invention can induce LL-37 in vivo. […] The isolated cheek cells are also subjected to Western blot analysis for protein expression of LL-37 by cheek epithelium using anti-LL-37 monoclonal antibody. The expression of both the proform (18 kD, also termed as hCAP18) and secreted form (4.5 kD) of LL-37 (12) in cheek epithelial cells is induced by Trihydroxybenzoate Derivatives of the Invention (e.g., EGCG (95% SIGMA), or by EGCG (90% Teavigo)).

LL-37 mRNA [5] = experiment: RT-PCR of LL-37 mRNA in cheek epithelial cells after mouthwash; format: in vivo, human; settings: mouthwash with 40 ug/ml, after 5 minutes
Excerpt: as §2

LL-37 mRNA [6] = experiment: LL-37 mRNA level in human lung carcinoma cell line A549; format: cell-based; settings: A549 cells
Method: (§3) Both LL-37 and hBD2 mRNA expression in OBA9 cells are induced after a 4-hour exposure to green tea polyphenol extract, Teaflan 90S (EGCG 50%, ECG 13%), and purified EGCG (95% pure, SIGMA) at concentrations of 0.1, 1.0 and 10 ug/ml. EGCG increases the production of LL-37 and hBD2 at the mRNA level in the human gingival epithelial cell line OBA9 (FIG. 1) as well as the human lung carcinoma cell line A549.

hBD2 mRNA [7] = experiment: hBD2 mRNA level in human lung carcinoma cell line A549; format: cell-based; settings: A549 cells
Method: as §3

hBD2 mRNA [8] = experiment: hBD2 mRNA expression in human gingival epithelial cell line OBA9; format: cell-based; settings: OBA9 cells, 4-hour exposure, 0.1, 1.0 and 10 ug/ml
Method: as §3

LL-37 mRNA [9] = experiment: LL-37 mRNA expression in human gingival epithelial cell line OBA9; format: cell-based; settings: OBA9 cells, 4-hour exposure, 0.1, 1.0 and 10 ug/ml
Method: as §3

O=C(O)c1ccc(O)c(O)c1O [2,3,4-tri-hydroxy benzoic acids, 2,3,4-trihydroxybenzoic acid]
induction of LL-37 expression by OBA9 cells (LL-37 [1]): show the induction

O=C(O)c1cc(O)c(O)c(O)c1 [gallic acid, 3,4,5-trihydroxybenzoic acid]
bactericidal effects of culture supernatant on Aa Y4 [2]: more bactericidal effects than control
induction of LL-37 expression by OBA9 cells (LL-37 [1]): show the induction
induction of LL-37 expression (LL-37 [3]): more potent than 3,4,-dihydroxy benzoate

O=c1ccc2ccccc2o1 [courmarin]
induction of LL-37 expression (LL-37 [3]): little or no induction

O=C(O)c1c(O)cccc1O [2,6-di-hydroxy benzoic acids, 2,6-di-hydroxy benzoic acid]
induction of LL-37 expression by OBA9 cells (LL-37 [1]): not

O=C(/C=C/c1ccc(O)c(O)c1)O[C@H](Cc1ccc(O)c(O)c1)C(=O)O [Rosemarinic acid]
induction of LL-37 expression (LL-37 [3]): little or no induction

CCCCCCCCCCCCCC(=O)O[C@@H]1[C@@H](C)[C@@]2(O)[C@@H](C=C(CO)C[C@]3(O)C(=O)C(C)=C[C@@H]23)[C@@H]2C(C)(C)[C@]12OC(C)=O [PMA]
induction of hBD2 (ELISA) (hBD2): minimal induction activities
induction of LL-37 (ELISA) (LL-37 [3]): induced

O=C(O[C@@H]1Cc2c(O)cc(O)cc2O[C@@H]1c1cc(O)c(O)c(O)c1)c1cc(O)c(O)c(O)c1 [EGCG]
expression of proform (18 kD) and secreted form (4.5 kD) of LL-37 in cheek epithelial cells (LL-37 [4]): induced
LL-37 mRNA expression by cheek epithelial cells (LL-37 mRNA [5]): up-regulated
production of LL-37 at the mRNA level (LL-37 mRNA [6]): increases
production of hBD2 at the mRNA level (hBD2 mRNA [7]): increases
bactericidal effects of culture supernatant on Aa Y4 [2]: more bactericidal effects than control
hBD2 mRNA expression (hBD2 mRNA [8]): induced
LL-37 mRNA expression (LL-37 mRNA [9]): induced

Poly IC
induction of hBD2 (ELISA) (hBD2): minimal induction activities
induction of LL-37 (ELISA) (LL-37 [3]): induced

O=C(O)c1c(O)cc(O)cc1O [2,4,6-tri-hydroxy benzoic acids]
induction of LL-37 expression by OBA9 cells (LL-37 [1]): not
